Measurements from article PMC11291853, “Haemodynamic, hormonal and renal actions of osteocrin in normal sheep” (Experimental Physiology, 2024).
Where “and” joins values, the source holds several entries; their conditions need not be identical. Identical values can stand only once. Where no end group is shown, it is not given here.

Key:
[1] = Plasma OSTN concentration, metabolic clearance rate and half-life during and after stepped I.V. infusion (OSTN RIA); format: in vivo, sheep; conditions: mean ± SD; for level at time molar at 1 h: sheep, sheep n = 8, RIA
Description: (§1) Sheep received I.V. infusions of increasing doses of ovine proOSTN (83–133), the putative 51 aa circulating peptide (at 2.5, 25 and 250 pmol/kg/min for 1 h each; Mimotopes, Melbourne, Victoria, Australia) and a vehicle control (0.9% saline) administered on separate days, ≥1 day apart, in a balanced random order.
(§2) Venous blood samples were obtained at 30 min and immediately preceding commencement of the first infusion (baseline) and at 30 min intervals for the duration of the study day. Samples were taken into tubes on ice, centrifuged at 4°C and stored at −20°C before assaying. Following extraction over C18 SepPac cartridges (Waters Corp., Milford, MA, USA), plasma concentrations of cGMP (Charles et al., [1990]), ANP (Charles et al., [1990]), BNP (Pemberton et al., [1997]), CNP (Charles et al., [1995]) and N‐terminal proCNP (NTproCNP) (Wilson et al., [2015]), were measured by radioimmunoassay (RIA) as previously described. Non‐extracted plasma renin activity (PRA) (Dunn & Espiner, [1976]) and aldosterone (Lun et al., [1983]) were measured as previously described. Cyclic AMP was measured by enzyme‐linked immunosorbent assay (catalogue no. ADI‐900‐163; Enzo Life Sciences, Farmingdale, NY, USA). For each analyte, all samples from individual animals were measured in the same assay to avoid interassay variability. Haematocrit concentrations were measured with every blood sample taken.
Osteocrin concentrations in the infusate were measured to calculate the infusion rate and metabolic clearance rate (MCR) of the peptide (MCR = infusion rate/plateau − baseline level).
Human proOSTN (83–112) […] was iodinated using 0.5 mCi Na^125I in the presence of […] chloramine‐T in […] phosphate buffer, pH 7.5, for 20 s, followed by the addition of 50 mg cysteine, 25 mg BSA and 20 mg KI in […] buffer. The resulting mixture was loaded onto a 10 cm RP300 Brownlee column and eluted with a gradient from 0% to 60% acetonitrile in 49 mmol/L KH2PO4 buffer, pH 2.9, over 30 min at 1 mL/min, collecting 0.5 mL fractions. The fraction containing the major peak of radioactive [^125I]‐proOSTN (83–112) was used in the RIA. Peptide standards were made from synthetic human proOSTN (83–133) taking into account the purity data supplied. All standards, sample extracts, antisera and tracer solutions were made up in pH 7.4 assay buffer (0.1% BSA in 0.1 M phosphate buffer). Fifty microlitres of sample extract or 1−1000 pmol/L of human proOSTN (83–133) standard (all in duplicate) were incubated with 50 μL antiserum H‐028‐68 (Phoenix Pharmaceuticals) at a dilution of 1:20,000 for 24 h at 4°C, followed by addition of 50 μL of tracer solution [^125I]‐proOSTN (83–112) containing 3000 cpm for an additional 24 h at 4°C. Bound and free [^125I]‐proOSTN (83–112) were separated by a solid‐phase second antibody method (Sac‐Cell, Donkey‐Anti Rabbit; IDS, UK), and the radioactivity in the bound [^125I]‐proOSTN (83–112) pellet was measured in a PerkinElmer Wizard2 10‐Detector Gamma Counter. Ovine concentrations of OSTN were extrapolated from the human standards, taking into account ovine proOSTN (83–133) cross‐reactivity. Ovine proOSTN (83–112) cross‐reactivity in the ANP, BNP and CNP RIA was <0.005%.

normal conscious sheep [2] = assay: Haemodynamic and haematocrit responses to stepped OSTN infusion; format: in vivo; conditions: for Fall in mean arterial pressure (MAP) compared with time-matched vehicle control: sheep n = 8
Description: Eight Coopworth ewes (4–6 years; 42–60 kg; Lincoln University Farm, New Zealand) were instrumented under general anaesthesia (induced by 0.5 mg/kg diazepam I.V. and 4 mg/kg ketamine I.V. and maintained with a mixture of isoflurane and oxygen) and using approved peri‐ and postoperative antibiotics (20 mg/kg cephazolin I.V.; 6.6–20 mg/kg oxytetracycline I.V.) and analgesia (4 mg/kg carprofen I.V.). Sheep were instrumented via a 50‐mm‐long neck incision, allowing cannulation of the left carotid artery (16 gauge Angiocath; Becton Dickinson, Sandy, UT, USA) for direct measurement of mean arterial pressure (MAP) and heart rate (HR). A polyethylene catheter was placed in the left jugular vein for blood sampling and recording of central venous pressure (CVP). A Swan–Ganz thermodilution catheter (Edwards Life Sciences, Irvine, CA, USA) was placed in the pulmonary artery via the jugular vein for the measurement of cardiac output (CO). The urinary bladder was catheterized per urethra for timed urine collections (Charles, Espiner, Nicholls et al., [1996]). Animals recovered for ≥5 days before commencing the study protocol.
as §1
Haemodynamic measurements [HR, MAP, CVP and CO, and calculated total peripheral resistance (CTPR = MAP/CO)] were recorded at 30 min intervals in the hour preceding the first dose (baseline) and at 15, 30, 45 and 60 min during each infusion. […] Measurements were determined by online computer‐assisted analysis (PowerLab Systems; ADInstruments, Dunedin, New Zealand) and made with the animals standing quietly in their metabolic crates (Charles, Espiner, Nicholls et al., [1996]).
as §2

normal conscious sheep [3] = assay: Plasma cGMP (RIA) and cAMP (ELISA) responses to stepped OSTN infusion; format: in vivo; conditions: sheep n = 8, mean ± SD
Description: as §1, §2

normal conscious sheep [4] = assay: Plasma ANP, BNP, CNP and NTproCNP responses to stepped OSTN infusion (RIA); format: in vivo; conditions: for Plasma ANP / Plasma BNP / Plasma CNP: sheep n = 8, mean ± SD
Description: as §1, §2

[5] = end of 60 min OSTN infusion 2.5 pmol/kg/min
[6] = end of 60 min OSTN infusion 25 pmol/kg/min
[7] = end of 60 min OSTN infusion 250 pmol/kg/min

- half-life ([1]; Coopworth, plasma, iv, normal sheep, after end of 250 pmol/kg/min infusion, samples at 1-15 min, read-out: Osteocrin plasma half-life): 5.7 ± 1.8 min
- level at time molar at 1 h ([1]; Coopworth, plasma, iv, 2.5 pmol/kg/min, end of 60 min I.V. infusion at 2.5 pmol/kg/min): 0.0287 ± 0.008 nM
- level at time molar at 1 h ([1]; Coopworth, plasma, iv, 25 pmol/kg/min, end of 60 min I.V. infusion at 25 pmol/kg/min): 0.48 ± 0.195 nM
- level at time molar at 1 h ([1]; Coopworth, plasma, iv, 250 pmol/kg/min, end of 60 min I.V. infusion at 250 pmol/kg/min): 6.09 ± 0.75 nM
- Osteocrin plasma half-life ([1]; normal sheep, after end of 250 pmol/kg/min infusion, samples at 1-15 min): ~6 min
Sequence: SFSGFGSPLDRLSAGSVSHKGKQRKVVDHPKRRFGIPMDRIGRNRLSNSRG [OSTN]
- Fall in mean arterial pressure (MAP) compared with time-matched vehicle control (normal conscious sheep [2]; end of 2.5 pmol/kg/min infusion period): ~2 mmHg
- Fall in mean arterial pressure (MAP) compared with time-matched vehicle control (normal conscious sheep [2]; end of 25 pmol/kg/min infusion period): ~7 mmHg
- Fall in mean arterial pressure (MAP) compared with time-matched vehicle control (normal conscious sheep [2]; end of 250 pmol/kg/min infusion period): ~12 mmHg
- Heart rate (HR) (normal conscious sheep [2]; stepped OSTN infusions vs vehicle, P = 0.140): did not significantly alter
- Calculated total peripheral resistance (CTPR) (normal conscious sheep [2]; stepped OSTN infusions vs vehicle, P = 0.356): did not significantly alter
- Haematocrit (normal conscious sheep [2]; stepped OSTN infusions vs vehicle, P = 0.360): did not significantly alter
- Cardiac output (CO) (normal conscious sheep [2]; stepped OSTN infusions vs vehicle, P = 0.546): did not significantly alter
- Central venous pressure (CVP) (normal conscious sheep [2]; vs vehicle, P = 0.003, significant reductions at 25 and 250 pmol/kg/min): reduced
- Plasma cAMP (normal conscious sheep [3]; 1 h, end of OSTN 2.5 pmol/kg/min I.V.): 11.5 ± 4.8 pmol/L
- Plasma cAMP (normal conscious sheep [3]; 2 h, end of OSTN 25 pmol/kg/min I.V.): 11.6 ± 3.0 pmol/L
- Plasma cAMP (normal conscious sheep [3]; 3 h, end of OSTN 250 pmol/kg/min I.V.): 12.9 ± 6.5 pmol/L
- Plasma cAMP (normal conscious sheep [3]; 4 h, 1 h after end of infusions): 10.4 ± 7.1 pmol/L
- Plasma cAMP (normal conscious sheep [3]; 5 h, 2 h after end of infusions): 10.7 ± 6.1 pmol/L
- Plasma cGMP (normal conscious sheep [3]; [5]): 11.2 ± 5.1 nmol/L
- Plasma cGMP (normal conscious sheep [3]; [6]): 19.0 ± 11.0 nmol/L
- Plasma cGMP (normal conscious sheep [3]; [7]): 23.1 ± 9.7 nmol/L
- Plasma ANP (normal conscious sheep [4]; [5]): 24.3 ± 10.1 pmol/L and 24 pmol/L
- Plasma BNP (normal conscious sheep [4]; [5]): 2.0 ± 0.5 pmol/L
- Plasma CNP (normal conscious sheep [4]; [5]): 1.21 ± 0.30 pmol/L and 1.2 pmol/L
- Plasma ANP (normal conscious sheep [4]; [6]): 27.6 ± 10.2 pmol/L
- Plasma BNP (normal conscious sheep [4]; [6]): 3.1 ± 0.9 pmol/L
- Plasma CNP (normal conscious sheep [4]; [6]): 2.13 ± 0.50 pmol/L
- Plasma ANP (normal conscious sheep [4]; [7]): 33.0 ± 14.2 pmol/L
- Plasma BNP (normal conscious sheep [4]; [7]): 3.9 ± 2.3 pmol/L
- Plasma CNP (normal conscious sheep [4]; [7]): 3.81 ± 1.30 pmol/L
- Plasma NTproCNP (normal conscious sheep [4]; stepped OSTN infusions 2.5, 25, 250 pmol/kg/min vs vehicle, P = 0.064): no significant effect
